In PubChem BioAssay AID256 (DTP/NCI, 2004):
Inconclusive results and toxic doses are left out. Rule for the calls: active = survival T/C of 150% or more; inactive = T/C below 125% in these data.

Test system: CD2F1 mice, L1210 leukemia ip, survival T/C
Test: NCI In Vivo Anticancer Drug Screen. Data for tumor model L1210 Leukemia (intraperitoneal) in CD2F1 (CDF1) mice
Conditions: higher = longer survival
Outline: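 In this screen, transplantable tumors were grown in mice given either the compound or its vehicle. Results were expressed as the treated measurement relative to the control measurement.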

[1] = endpoint: mean survival time, dose: 100.0 mg/kg/injection, schedule: Q04DX003 (ip), vehicle: saline
[2] = endpoint: mean survival time, dose: 200.0 mg/kg/injection, schedule: Q04DX003 (ip), vehicle: saline

Measured: T/C

CC(/C=C/c1ccccc1)=Nc1ccccc1
inactive: endpoint: mean survival time, dose: 100.0 mg/kg/injection, schedule: Q04DX003 (ip), vehicle: saline with Tween-80 106 % of control | endpoint: mean survival time, dose: 200.0 mg/kg/injection, schedule: Q04DX003 (ip), vehicle: saline with Tween-80 103 % of control | endpoint: mean survival time, dose: 400.0 mg/kg/injection, schedule: Q04DX003 (ip), vehicle: saline with Tween-80 106 % of control | endpoint: median survival time, dose: 12.5 mg/kg/injection, schedule: Q01DX009 (ip), vehicle: saline with Tween-80 108 % of control | endpoint: median survival time, dose: 25.0 mg/kg/injection, schedule: Q01DX009 (ip), vehicle: saline with Tween-80 98 % of control | endpoint: median survival time, dose: 50.0 mg/kg/injection, schedule: Q01DX009 (ip), vehicle: saline with Tween-80 111 % of control | endpoint: median survival time, dose: 100.0 mg/kg/injection, schedule: Q01DX009 (ip), vehicle: saline with Tween-80 107 % of control | endpoint: median survival time, dose: 200.0 mg/kg/injection, schedule: Q01DX009 (ip), vehicle: saline with Tween-80 104 % of control

C=CCNc1ncnc2c1cnn2C
inactive: [1] 106 % of control | [2] 104 % of control

C=CCSc1ncnc2c1cnn2C1OC(CO)C(O)C1O (stereo unspecified)
inactive: endpoint: mean survival time, dose: 12.5 mg/kg/injection, schedule: Q01DX005 (ip), vehicle: water 102 % of control | endpoint: mean survival time, dose: 25.0 mg/kg/injection, schedule: Q01DX005 (ip), vehicle: water 98 % of control | endpoint: mean survival time, dose: 50.0 mg/kg/injection, schedule: Q01DX005 (ip), vehicle: water 98 % of control | endpoint: mean survival time, dose: 100.0 mg/kg/injection, schedule: Q01DX005 (ip), vehicle: water 102 % of control

CC1=C(CCC(=O)O)C(=O)C(CCC(=O)O)C(C)(C)C1 (stereo unspecified)
inactive: endpoint: mean survival time, dose: 100.0 mg/kg/injection, schedule: Q04DX002 (ip), vehicle: saline with Tween-80 96 % of control | endpoint: mean survival time, dose: 200.0 mg/kg/injection, schedule: Q04DX002 (ip), vehicle: saline with Tween-80 100 % of control | endpoint: mean survival time, dose: 400.0 mg/kg/injection, schedule: Q04DX002 (ip), vehicle: saline with Tween-80 100 % of control

CC(C)(C)NO
inactive: endpoint: mean survival time, dose: 100.0 mg/kg/injection, schedule: Q01DX001 (ip), vehicle: Klucel (hydroxypropylcellulose) (HPC) 100 % of control | endpoint: mean survival time, dose: 200.0 mg/kg/injection, schedule: Q01DX001 (ip), vehicle: Klucel (hydroxypropylcellulose) (HPC) 96 % of control | endpoint: mean survival time, dose: 400.0 mg/kg/injection, schedule: Q01DX001 (ip), vehicle: Klucel (hydroxypropylcellulose) (HPC) 100 % of control

COCC(=O)C(C(C)=O)C(c1ccc(OC)cc1)C(C(C)=O)C(=O)COC (stereo unspecified)
inactive: endpoint: mean survival time, dose: 100.0 mg/kg/injection, schedule: Q01DX001 (ip), vehicle: saline with Tween-80 101 % of control | endpoint: mean survival time, dose: 200.0 mg/kg/injection, schedule: Q01DX001 (ip), vehicle: saline with Tween-80 98 % of control | endpoint: mean survival time, dose: 400.0 mg/kg/injection, schedule: Q01DX001 (ip), vehicle: saline with Tween-80 95 % of control

CCN(CC)c1ccc(N)cc1
inactive: endpoint: mean survival time, dose: 5.0 mg/kg/injection, schedule: Q01DX009 (ip), vehicle: saline 96 % of control | endpoint: mean survival time, dose: 5.0 mg/kg/injection, schedule: Q04DX003 (ip), vehicle: saline 96 % of control | endpoint: mean survival time, dose: 10.0 mg/kg/injection, schedule: Q01DX009 (ip), vehicle: saline 96 % of control | endpoint: mean survival time, dose: 10.0 mg/kg/injection, schedule: Q04DX003 (ip), vehicle: saline 97 % of control | endpoint: mean survival time, dose: 20.0 mg/kg/injection, schedule: Q01DX009 (ip), vehicle: saline 100 % of control | endpoint: mean survival time, dose: 20.0 mg/kg/injection, schedule: Q04DX003 (ip), vehicle: saline 94 % of control

CCCCCCCCCCCCCCCCCC(CCCCCCCC)CCCCCCCC
inactive: endpoint: mean survival time, dose: 100.0 mg/kg/injection, schedule: Q01DX001 (ip), vehicle: saline 96 % of control | endpoint: mean survival time, dose: 200.0 mg/kg/injection, schedule: Q01DX001 (ip), vehicle: saline 94 % of control | endpoint: mean survival time, dose: 400.0 mg/kg/injection, schedule: Q01DX001 (ip), vehicle: saline 91 % of control

CCCCCCOC(=O)C[n+]1ccc(C(N)=O)cc1
inactive: [1] 101 % of control | [2] 94 % of control

O=C(NC/C=C/Br)Nc1cnc2ccccc2c1
inactive: endpoint: mean survival time, dose: 25.0 mg/kg/injection, schedule: Q04DX003 (ip), vehicle: saline with Tween-80 102 % of control | endpoint: mean survival time, dose: 50.0 mg/kg/injection, schedule: Q04DX003 (ip), vehicle: saline with Tween-80 93 % of control

c1ccc2c(c1)ccc1c2c[n+](CCCCCCCC[n+]2cc3c4ccccc4ccc3c3ccccc32)c2ccccc12
inactive: endpoint: mean survival time, dose: 1.56 mg/kg/injection, schedule: Q04DX003 (ip), vehicle: distilled water + Tween-80 114 % of control | endpoint: mean survival time, dose: 3.13 mg/kg/injection, schedule: Q04DX003 (ip), vehicle: distilled water + Tween-80 124 % of control

CCCCCCCCCCCCSCCC(=O)O
inactive: [1] 98 % of control | [2] 98 % of control | endpoint: mean survival time, dose: 400.0 mg/kg/injection, schedule: Q04DX003 (ip), vehicle: saline 97 % of control
